Assay results published in patent US7557092B2, “Purinergic modulation of smell” (University of Utah Research Foundation, priority 2002, dated 2009).
Where two headings read alike, the source gives them in different places.

Tests used:
[1] = test system: ORNs in mouse olfactory epithelium slices; assay: confocal calcium imaging of fluo-4 AM loaded olfactory epithelium slices, ORNs; type: cell-based; details: for evoked calcium transients in olfactory epithelial slices: superfused onto olfactory epithelial slices (ORNs and sustentacular cells); for agonist-evoked calcium transients in ORNs: 10 μM agonist superfused onto slice
Excerpt: (§1) To study the effects of ATP on odor responses, acutely prepared slices of mouse olfactory epithelium were used. Confocal imaging of fluo-4 AM-loaded olfactory epithelium slices allows simultaneous recording from identified structures within the olfactory epithelium, i.e., both ORNs and sustentacular cells. […] The difference in robustness can be due to poor access to the ATP stimulus: odorant receptors are on the cilia of the ORNs, which extend beyond the outer edge of the olfactory epithelium, whereas purinergic receptors are located deeper within the olfactory epithelium. […] The latency of activation for the ATP-evoked calcium transient was shorter in the ORN (FIG. 3B2, solid up arrowhead) than in sustentacular cells (FIG. 3B3, open down arrowhead). Collectively, this was consistent with ORNs expressing the faster P2X receptors, and the sustentacular cells expressing the slower G-protein coupled P2Y receptors.
(§2) To prepare olfactory epithelium slices, neonatal mice (postnatal day 0-6) were quickly decapitated, and the skin and lower jaw were removed. Tissue was mounted in ice cold Ringers onto a vibratome-cutting block and 300 μm slices were made. Primary cultures of mouse ORNs were made using the same protocol and culture conditions as described for rat olfactory receptor neurons (Vargas and Lucero, 1999a). Briefly, tissue was placed in divalent cation-free Ringers containing 10 mg/ml bovine serum albumin, 1 mg/ml deoxyribonuclease II and 44 U/ml dispase, incubated at 37° C. for 45 min. The tissue was washed, triturated, and filtered through a […] mesh and […] cells were plated onto concanavalin A-coated coverslips and allowed to settle for 20 min. An additional 1.5 ml of culture medium was added (DMEM supplemented with […] ascorbic acid, 1X insulin-transferrin-seleniumX (GIBCO BRL), 2 mM glutamine, 100 U/ml penicillin G and […] streptomycin).
(§3) [Ca^2+]i was determined using confocal imaging of fluo-4 AM (18 μM; Molecular Probes) loaded cells and slices. Cells or slices were placed in a laminar flow chamber (Warner Instruments) and perfused continuously with Ringers solution at a flow rate of 1.5-2.0 ml/min. Ringers contained (mM): 140 NaCl, 5 KCl, 1 MgCl2, 2 CaCl2, 10 HEPES, 10 glucose, […] and 400 nM tetrodotoxin. Test solutions were applied using bath exchange and a small volume loop injector (200 μl). A Zeiss LSM 510 confocal laser scanning system was used for data collection and analysis. Time series experiments were performed collecting 1400×700 pixel images at 0.2-0.4 Hz. The fluorometric signals obtained are expressed as relative fluorescence change, ΔF/F═(F−F0)/F0, where F0 is the basal fluorescence level. Increases in F greater than 10% above baseline noise were considered responses.

[2] = test system: sustentacular cells in mouse olfactory epithelium slices; assay: confocal calcium imaging of fluo-4 AM loaded olfactory epithelium slices, sustentacular cells; type: cell-based; details: for agonist-evoked calcium transients in sustentacular cells: 10 μM agonist superfused onto slice
Excerpt: as §1, §2, §3

P2Y1 [3] = molecular target: P2Y1 (Meleagris gallopavo, UniProt P49652); details: cDNA from Turkey brain; cited from earlier work
Sequence of P2Y1 (Meleagris gallopavo, UniProt P49652) (P49652 whole entry): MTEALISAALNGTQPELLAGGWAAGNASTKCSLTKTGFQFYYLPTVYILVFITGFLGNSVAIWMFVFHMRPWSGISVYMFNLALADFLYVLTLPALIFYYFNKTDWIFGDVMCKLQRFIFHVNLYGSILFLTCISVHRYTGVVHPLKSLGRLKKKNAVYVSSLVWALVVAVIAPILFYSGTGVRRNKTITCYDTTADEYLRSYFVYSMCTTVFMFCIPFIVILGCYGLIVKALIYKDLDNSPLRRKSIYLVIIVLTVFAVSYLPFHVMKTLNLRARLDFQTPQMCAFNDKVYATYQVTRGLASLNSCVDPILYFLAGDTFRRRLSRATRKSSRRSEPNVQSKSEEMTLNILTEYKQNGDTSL

P2X7 = molecular target: T1, P2X7 (Rattus norvegicus, UniProt Q64663); details: cDNA from Rat macrophage and brain; cited from earlier work
T1 construct: host or cells: Xenopus oocytes
T1 sequence (Q64663 1-595): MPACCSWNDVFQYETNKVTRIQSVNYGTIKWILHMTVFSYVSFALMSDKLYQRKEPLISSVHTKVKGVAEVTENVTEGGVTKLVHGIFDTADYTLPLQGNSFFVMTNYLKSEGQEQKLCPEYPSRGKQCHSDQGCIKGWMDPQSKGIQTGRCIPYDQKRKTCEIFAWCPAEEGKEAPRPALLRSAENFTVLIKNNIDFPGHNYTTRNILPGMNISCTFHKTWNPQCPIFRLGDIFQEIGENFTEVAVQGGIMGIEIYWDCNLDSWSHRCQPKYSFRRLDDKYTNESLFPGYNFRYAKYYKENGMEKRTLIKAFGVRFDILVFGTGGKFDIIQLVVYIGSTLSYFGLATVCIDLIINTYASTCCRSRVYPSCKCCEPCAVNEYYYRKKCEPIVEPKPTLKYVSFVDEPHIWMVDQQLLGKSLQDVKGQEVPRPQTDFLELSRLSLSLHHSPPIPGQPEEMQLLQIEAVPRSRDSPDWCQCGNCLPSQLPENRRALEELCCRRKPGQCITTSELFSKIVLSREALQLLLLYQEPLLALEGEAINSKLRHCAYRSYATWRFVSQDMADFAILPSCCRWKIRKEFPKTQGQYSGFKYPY

P2Y1 [4] = molecular target: P2Y1 (Gallus gallus, UniProt P34996); details: cDNA from Chick brain; cited from earlier work
Sequence of P2Y1 (Gallus gallus, UniProt P34996) (P34996 whole entry): as the sequence (P49652 whole entry) above, with S28T counted along it

P2Y1 [5] = molecular target: P2Y1 (Rattus norvegicus, UniProt P49651); details: cited from earlier work
Sequence of P2Y1 (Rattus norvegicus, UniProt P49651) (P49651 whole entry): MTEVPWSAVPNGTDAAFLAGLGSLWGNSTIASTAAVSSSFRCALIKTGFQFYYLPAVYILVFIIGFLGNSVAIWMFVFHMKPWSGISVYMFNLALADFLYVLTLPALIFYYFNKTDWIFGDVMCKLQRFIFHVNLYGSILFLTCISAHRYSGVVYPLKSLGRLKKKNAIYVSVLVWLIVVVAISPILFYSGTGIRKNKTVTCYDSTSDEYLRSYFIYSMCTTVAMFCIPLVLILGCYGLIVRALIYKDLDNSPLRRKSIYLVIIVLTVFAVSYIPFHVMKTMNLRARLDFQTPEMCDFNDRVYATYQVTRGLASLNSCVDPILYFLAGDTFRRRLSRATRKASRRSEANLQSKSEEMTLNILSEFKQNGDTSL

P2Y11 = molecular target: T2, P2Y11 (Homo sapiens, UniProt Q96G91); details: cDNA from Human placenta; cited from earlier work
T2 sequence (Q96G91 1-374): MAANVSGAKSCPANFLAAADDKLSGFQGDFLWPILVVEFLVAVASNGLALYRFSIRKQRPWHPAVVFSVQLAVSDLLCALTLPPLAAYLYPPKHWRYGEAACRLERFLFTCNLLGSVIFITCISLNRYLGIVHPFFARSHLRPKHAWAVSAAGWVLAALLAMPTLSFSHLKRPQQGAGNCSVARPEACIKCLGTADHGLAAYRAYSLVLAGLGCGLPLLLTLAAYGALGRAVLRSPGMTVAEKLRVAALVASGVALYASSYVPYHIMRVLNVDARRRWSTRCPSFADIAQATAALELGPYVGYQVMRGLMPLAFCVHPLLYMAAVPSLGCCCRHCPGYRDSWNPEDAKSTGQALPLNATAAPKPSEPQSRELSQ

[6] = test system: odor responses of mouse ORNs in olfactory epithelium slices; assay: co-application of odor and purinergic receptor agonist, calcium transients in olfactory epithelium slices; type: cell-based
P2X2 = molecular target: T3, P2X2 (Rattus norvegicus, UniProt P49653); details: cDNA from Rat PC12 cells; cited from earlier work
T3 construct: host or cells: Xenopus oocytes
T3 sequence (P49653 1-472): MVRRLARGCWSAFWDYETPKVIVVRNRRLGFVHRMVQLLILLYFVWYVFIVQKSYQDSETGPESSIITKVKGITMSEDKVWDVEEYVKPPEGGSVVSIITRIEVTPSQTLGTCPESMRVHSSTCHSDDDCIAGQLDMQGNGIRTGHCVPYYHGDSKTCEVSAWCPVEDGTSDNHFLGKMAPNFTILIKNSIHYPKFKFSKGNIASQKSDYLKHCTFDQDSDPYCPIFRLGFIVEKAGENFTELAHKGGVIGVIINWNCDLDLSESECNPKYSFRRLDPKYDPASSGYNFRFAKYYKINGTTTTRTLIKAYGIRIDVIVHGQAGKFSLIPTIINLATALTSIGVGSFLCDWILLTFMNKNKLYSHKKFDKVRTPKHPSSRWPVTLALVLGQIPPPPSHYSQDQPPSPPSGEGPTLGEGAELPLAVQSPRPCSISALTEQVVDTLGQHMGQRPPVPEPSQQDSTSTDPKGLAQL

P2X5 = molecular target: T4, P2X5 (Rattus norvegicus, UniProt P51578); details: cDNA from Rat ganglia; cited from earlier work
T4 construct: host or cells: Xenopus oocytes
T4 sequence (P51578 1-455): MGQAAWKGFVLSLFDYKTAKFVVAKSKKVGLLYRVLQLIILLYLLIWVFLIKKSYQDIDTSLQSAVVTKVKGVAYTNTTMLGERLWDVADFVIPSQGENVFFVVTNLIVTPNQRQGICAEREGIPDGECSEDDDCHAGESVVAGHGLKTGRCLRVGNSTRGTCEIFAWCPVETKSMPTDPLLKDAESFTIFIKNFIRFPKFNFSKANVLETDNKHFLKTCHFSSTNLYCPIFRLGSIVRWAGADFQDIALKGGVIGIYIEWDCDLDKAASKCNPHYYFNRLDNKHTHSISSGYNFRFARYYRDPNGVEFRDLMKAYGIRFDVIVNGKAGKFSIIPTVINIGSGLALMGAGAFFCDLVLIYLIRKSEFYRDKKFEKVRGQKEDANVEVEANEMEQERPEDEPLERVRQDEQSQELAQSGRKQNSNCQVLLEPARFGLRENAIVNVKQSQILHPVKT

P2X6 = molecular target: T5, P2X6 (Rattus norvegicus, UniProt P51579); details: cDNA from Rat superior cervical ganglion; cited from earlier work
T5 construct: host or cells: Xenopus oocytes
T5 sequence (P51579 whole entry): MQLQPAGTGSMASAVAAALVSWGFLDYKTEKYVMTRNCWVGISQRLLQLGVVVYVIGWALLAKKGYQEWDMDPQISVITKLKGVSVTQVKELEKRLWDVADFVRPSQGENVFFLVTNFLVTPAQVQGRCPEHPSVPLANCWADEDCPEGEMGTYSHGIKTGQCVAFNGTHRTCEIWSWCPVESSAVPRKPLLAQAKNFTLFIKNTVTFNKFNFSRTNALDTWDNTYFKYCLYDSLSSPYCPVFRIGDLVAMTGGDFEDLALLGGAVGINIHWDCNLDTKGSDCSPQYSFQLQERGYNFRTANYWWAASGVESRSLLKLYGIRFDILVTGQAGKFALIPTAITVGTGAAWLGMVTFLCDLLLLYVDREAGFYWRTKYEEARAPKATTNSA

P2X4 = molecular target: T6, P2X4 (Rattus norvegicus, UniProt P51577); details: cDNA from Rat superior cervical ganglion; cited from earlier work
T6 construct: host or cells: Xenopus oocytes
T6 sequence (P51577 1-388): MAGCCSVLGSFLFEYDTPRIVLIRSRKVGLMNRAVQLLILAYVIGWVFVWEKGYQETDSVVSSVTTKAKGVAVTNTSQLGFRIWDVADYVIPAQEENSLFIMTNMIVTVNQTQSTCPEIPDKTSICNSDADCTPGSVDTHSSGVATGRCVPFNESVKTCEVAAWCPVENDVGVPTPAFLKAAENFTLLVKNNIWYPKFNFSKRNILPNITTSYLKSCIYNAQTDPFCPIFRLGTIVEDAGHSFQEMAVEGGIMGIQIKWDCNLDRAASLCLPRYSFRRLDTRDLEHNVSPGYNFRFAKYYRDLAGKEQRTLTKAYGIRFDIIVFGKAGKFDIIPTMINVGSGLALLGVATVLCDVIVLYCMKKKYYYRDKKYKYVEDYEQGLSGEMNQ

[7] = ORNs, PPADS 25 μm, reversible, n=5
[8] = sustentacular cells, PPADS, n=30
[9] = co-application of 10 μM βγ-methylene ATP and odor, 2/16 cells

Nc1ncnc2c1ncn2[C@@H]1O[C@H](CO)[C@@H](O)[C@H]1O [Adenosine]
evoked calcium transients in olfactory epithelial slices [1]: never observed

Cc1nc(N=Nc2ccc(S(=O)(=O)O)cc2S(=O)(=O)O)c(COP(=O)(O)O)c(C=O)c1O [PPADS, pyridoxalphosphate-6-azophenyl-2′,4′-disulfonic acid]
block of ATP-evoked calcium transients [1, 7]: 87±5% | block of UTP-evoked calcium transients [1, 7]: 92±3% | block of ATP-evoked Ca2+ transients [2, 8]: 82±2% | block of UTP-evoked Ca2+ transients [2, 8]: 76±2%

O=c1ccn([C@@H]2O[C@H](COP(=O)(O)OP(=O)(O)OP(=O)(O)O)[C@@H](O)[C@H]2O)c(=O)[nH]1 [UTP]
Agonist activity (P2Y1 [3]): 2MeSATP > ADP > ATP; (UTP inactive) | Agonist activity (P2X7): BzATP > ATP > 2MeSATP > ADP; UTP inactive | Agonist activity (P2Y1 [4]): 2MeSATP > ATP > ADP; (UTP inactive) | Agonist activity (P2Y1 [5]; cDNA from Rat ileal myocytes): (UTP inactive) | Agonist activity (P2Y11): (UTP, UDP inactive) | agonist-evoked calcium transients in ORNs [1]: evoked calcium transients | agonist-evoked calcium transients in sustentacular cells [2]: evoked calcium transients | effect on co-application evoked calcium transient ([6]; P2Y selective agonists co-applied with odor): suppressed the co-application evoked calcium transient

Nc1ncnc2c1ncn2[C@@H]1O[C@H](COP(=O)(O)OP(=O)(O)CP(=O)(O)O)[C@@H](O)[C@H]1O [βγ-methylene ATP, β,γ-methylene ATP]
agonist-evoked calcium transients in ORNs [1]: responded | agonist-evoked calcium transients in sustentacular cells [2]: not the sustentacular cells | ORNs with enhanced calcium transient amplitude ([6]; co-application of 10 μM βγ-MeATP and odors, 2 slices): 2/16 | ORNs with suppressed calcium transient amplitude ([6]; co-application of 10 μM βγ-MeATP and odors, 6 slices): 12/16 | change of amplitude in cells with no effect [6, 9]: 15±1% | enhancement of calcium transient amplitude [6, 9]: 168±44% | suppression of Ca2+ transient amplitude ([6]; co-application of 10 μM βγ-methylene ATP and odor, 2/16 cells as printed): 42±5% | reduction in the average amplitude of the Ca2+ transient, overall ([6]; co-application of 10 μM βγ-methylene ATP and odor, 16/16 cells): 25±11%

Nc1ncnc2c1ncn2[C@@H]1O[C@H](COP(=O)(O)CP(=O)(O)OP(=O)(O)O)[C@@H](O)[C@H]1O [α,β-meATP, α,β-methylene ATP]
Agonist activity (P2X2): 2MeSATP > ATP; α,β-meATP inactive | Agonist activity (P2Y1 [5]; cDNA from Rat insulinoma cells): (α,β-meATP inactive) | Agonist activity (P2X5): α,β-meATP inactive | Agonist activity (P2X6): ATP > 2MeSATP > ADP; α,β-meATP inactive | Agonist activity (P2X4): ATP; α,β-meATP inactive

Nc1ncnc2c1ncn2[C@@H]1O[C@H](COP(=O)(O)O)[C@@H](O)[C@H]1O [AMP]
evoked calcium transients in olfactory epithelial slices [1]: never observed

O=c1ccn([C@@H]2O[C@H](COP(=O)(O)OP(=O)(O)O)[C@@H](O)[C@H]2O)c(=O)[nH]1 [UDP]
Agonist activity (P2Y11): (UTP, UDP inactive)
